Several values for one entry are separate records, joined by “and”; a condition that tells them apart may be missing. Identical values can stand only once. Like-named read-outs stand apart in the source and are kept apart here.
Experiment: Phase 1/2a study, plasma pharmacokinetics of PF-07104091
Type: in vivo, human
Text: Blood samples will be collected for measurement of plasma concentrations of PF-07104091 as specified in the protocol. Samples will be used to evaluate the PK of PF-07104091. Samples collected for analyses of PF-07104091 plasma concentration may also be used to evaluate safety or efficacy aspects related to concerns arising during or after the study, for metabolite identification and/or evaluation of the bioanalytical method, or for other internal exploratory purposes.
Plasma PF-07104091 concentrations will be summarized descriptively (n, mean, standard deviation, coefficient of variation, median, minimum, maximum, geometric mean and its associated coefficient of variation) by dose, cycle, day and nominal time. Individual participant plasma PF-07104091 concentration-time data within a dose interval (with exception of the food effect substudy) after Cycle 1 Day 1 and Cycle 1 Day 15 will be analyzed using noncompartmental methods to determine single and multiple dose PK parameters. For participants in the food effect substudy, individual plasma PF-07104091 concentration-time data after Cycle 1 Day 15 and Cycle 1 Day 16 will be analyzed using noncompartmental methods to determine multiple dose PK parameters. For Part 1 of the study, single dose PK parameters to be estimated will include the Cmax, Tmax, and AUClast, and if data permit, t1/2, CL/F, and Vz/F. Multiple dose PK parameters to be estimated will include Cmax,ss, Tmax,ss, AUCT,ss, Cmin,ss, CL/F,ss, and if data permit, V/Fss, t1/2, and Rac. For Part 2 of the study (with exception of the food effect substudy), single dose PK parameters to be estimated will include Cmax, Tmax and AUClast. Multiple dose PK parameters to be estimated will include Cmax,ss, Tmax,ss, AUClast, Cmin,ss, and Rac. The single dose and steady state PK parameters will be summarized descriptively (n, mean, standard deviation, coefficient of variation, median, minimum, maximum, geometric mean and its associated coefficient of variation) by dose level, cycle and day. For participants in the food effect substudy, multiple dose PK parameters to be estimated will include Cmax,ss, AUCT,ss, Tmax,ss, Cmin,ss, CL/Fss, and if data permit, V/Fss and t1/2.
An ongoing Phase 1/2a, open-label, multicenter, multiple dose study is being conducted to determine the safety, tolerability, PK, PD, and preliminary anti-tumor activity of PF-07104091 as a single agent and in combination with endocrine therapy. PF-07104091 is administered orally twice daily (BID) during 28-day cycles.
Preliminary concentration-time data of PF-07104091 following single and multiple oral administration at 75 mg BID to 500 mg BID as monotherapy or in combination with endocrine therapy alone or in combination with palbociclib and endocrine therapy were available from 44 participants with advanced solid tumors and HR-positive HER2-negative advanced or metastatic breast cancer. The preliminary concentration-time data were analyzed by noncompartmental approach using actual PK sampling times.
[…] Individual values are listed when the number of participants with available parameters is less than 3.

[1] = Cycle 1 Day 1, single oral dose, 375 mg BID monotherapy, individual values
[2] = Cycle 1 Day 15, repeated BID oral, 75 mg BID monotherapy, individual values

For COCc1cc(C(=O)Nc2cc([C@H]3CC[C@@H](OC(=O)NC(C)C)C3)[nH]n2)n(C)n1 [PF-07104091, (1R,3S)-3-[3-({[3-(methoxymethyl)-1-methyl-1H-pyrazol-5-yl]carbonyl}amino)-1H-pyrazol-5-yl]cyclopentyl propan-2-ylcarbamate], the AUClast [1] was 14424 ng·h/mL, the Cmax [1] was 2890 ng/mL and the Tmax [1] was 4.0, 4.0 h. The Rac (Cycle 1 Day 15, repeated BID oral, 75 mg BID (1B), with palbociclib and fulvestrant, arithmetic mean ± SD) was 1.2 ± 0.1, the AUClast [2] was 2321, ng*h/mL and the Cmax [2] was 398, ng/mL. For the same compound, the Rac [2] was 1.4 and 2.7, the Rac (Cycle 1 Day 15, repeated BID oral, 150 mg BID monotherapy, arithmetic mean ± SD) was 1.8 ± 0.2 and the Rac (Cycle 1 Day 15, repeated BID oral, 225 mg BID monotherapy, arithmetic mean ± SD) was 1.8 ± 0.7. The Rac (Cycle 1 Day 15, repeated BID oral, 300 mg BID monotherapy, arithmetic mean ± SD) was 1.9 ± 1.1, the Rac (Cycle 1 Day 15, repeated BID oral, 500 mg BID monotherapy, individual value, N = 1) was 1.1 and the accumulation (following repeated BID administration) was “moderate accumulation”. It also gave a half-life (human, plasma, po, 75 mg BID to 500 mg BID, read-out: average half-life (converted)) of roughly 2 h, a half-life (human, plasma, po, 75 mg, Cycle 1 Day 1, single oral dose, 75 mg BID (1B), with palbociclib and fulvestrant, arithmetic mean ± SD, read-out: t1/2 (converted)) of 1.9 ± 0.2 h and an AUC(0-t) (human, plasma, po, 75 mg, Cycle 1 Day 1, single oral dose, 75 mg BID (1B), with palbociclib and fulvestrant, geometric mean (CV %)) of 2760 ng·h/mL. For the same compound, the Cmax (human, plasma, po, 75 mg, Cycle 1 Day 1, single oral dose, 75 mg BID (1B), with palbociclib and fulvestrant, geometric mean (CV %), read-out: Cmax) was 694 ng/mL, the Tmax (human, plasma, po, 75 mg, Cycle 1 Day 1, single oral dose, 75 mg BID (1B), with palbociclib and fulvestrant, median (range), read-out: Tmax) was 1.6 h and the half-life (human, plasma, po, 75 mg, Cycle 1 Day 1, single oral dose, 75 mg BID (1C), with palbociclib and letrozole, arithmetic mean ± SD, read-out: t1/2 (converted)) was 1.6 ± 0.5 h. For the same compound, the AUC(0-t) (human, plasma, po, 75 mg, Cycle 1 Day 1, single oral dose, 75 mg BID (1C), with palbociclib and letrozole, geometric mean (CV %)) was 2460 ng·h/mL, the Cmax (human, plasma, po, 75 mg, Cycle 1 Day 1, single oral dose, 75 mg BID (1C), with palbociclib and letrozole, geometric mean (CV %), read-out: Cmax) was 648 ng/mL and the Tmax (human, plasma, po, 75 mg, Cycle 1 Day 1, single oral dose, 75 mg BID (1C), with palbociclib and letrozole, median (range), read-out: Tmax) was 0.5 h. For the same compound, the half-life (human, plasma, po, 75 mg, Cycle 1 Day 1, single oral dose, 75 mg BID monotherapy, arithmetic mean ± SD, read-out: t1/2 (converted)) was 2.4 ± 0.7 h, the AUC(0-t) (human, plasma, po, 75 mg, Cycle 1 Day 1, single oral dose, 75 mg BID monotherapy, geometric mean (CV %)) was 1750 ng·h/mL and the Cmax (human, plasma, po, 75 mg, Cycle 1 Day 1, single oral dose, 75 mg BID monotherapy, geometric mean (CV %), read-out: Cmax) was 362 ng/mL. For the same compound, the Tmax (human, plasma, po, 75 mg, Cycle 1 Day 1, single oral dose, 75 mg BID monotherapy, median (range), read-out: Tmax) was 2 h, the half-life (human, plasma, po, 75 mg, Cycle 1 Day 15, repeated BID oral, 75 mg BID (1B), with palbociclib and fulvestrant, arithmetic mean ± SD, read-out: t1/2 (converted)) was 3.6 ± 0.9 h and the AUC(0-t) (human, plasma, po, 75 mg, Cycle 1 Day 15, repeated BID oral, 75 mg BID (1B), with palbociclib and fulvestrant, geometric mean (CV %)) was 3080 ng·h/mL. The Cmax (human, plasma, po, 75 mg, Cycle 1 Day 15, repeated BID oral, 75 mg BID (1B), with palbociclib and fulvestrant, geometric mean (CV %), read-out: Cmax) was 698 ng/mL, the Tmax (human, plasma, po, 75 mg, Cycle 1 Day 15, repeated BID oral, 75 mg BID (1B), with palbociclib and fulvestrant, median (range), read-out: Tmax) was 1.2 h and the AUC(0-t) (human, plasma, po, 75 mg, Cycle 1 Day 15, repeated BID oral, 75 mg BID monotherapy, individual values) was 3580 ng·h/mL. For the same compound, the Cmax (human, plasma, po, 75 mg, Cycle 1 Day 15, repeated BID oral, 75 mg BID monotherapy, individual values, read-out: Cmax) was 714 ng/mL, the Tmax (human, plasma, po, 75 mg, Cycle 1 Day 15, repeated BID oral, 75 mg BID monotherapy, individual values, read-out: Tmax) was 1.1 h and the AUC(0-t) (human, plasma, po, 150 mg, Cycle 1 Day 1, single oral dose, 150 mg BID monotherapy, geometric mean (CV %)) was 4480 ng·h/mL. It also gave a Cmax (human, plasma, po, 150 mg, Cycle 1 Day 1, single oral dose, 150 mg BID monotherapy, geometric mean (CV %), read-out: Cmax) of 739 ng/mL, a Tmax (human, plasma, po, 150 mg, Cycle 1 Day 1, single oral dose, 150 mg BID monotherapy, median (range), read-out: Tmax) of 2 h and a half-life (human, plasma, po, 150 mg, Cycle 1 Day 1, single oral dose, 150 mg BID monotherapy, n = 1, read-out: t1/2 (converted)) of 2.8 h. It also gave an AUC(0-t) (human, plasma, po, 150 mg, Cycle 1 Day 15, repeated BID oral, 150 mg BID monotherapy, geometric mean (CV %)) of 8020 ng·h/mL, a Cmax (human, plasma, po, 150 mg, Cycle 1 Day 15, repeated BID oral, 150 mg BID monotherapy, geometric mean (CV %), read-out: Cmax) of 1320 ng/mL and a Tmax (human, plasma, po, 150 mg, Cycle 1 Day 15, repeated BID oral, 150 mg BID monotherapy, median (range), read-out: Tmax) of 2.2 h. For the same compound, the half-life (human, plasma, po, 150 mg, Cycle 1 Day 15, repeated BID oral, 150 mg BID monotherapy, n = 1, read-out: t1/2 (converted)) was 1.9 h, the half-life (human, plasma, po, 225 mg, Cycle 1 Day 1, single oral dose, 225 mg BID monotherapy, arithmetic mean ± SD, read-out: t1/2 (converted)) was 2.2 ± 0.7 h and the AUC(0-t) (human, plasma, po, 225 mg, Cycle 1 Day 1, single oral dose, 225 mg BID monotherapy, geometric mean (CV %)) was 6630 ng·h/mL. The Cmax (human, plasma, po, 225 mg, Cycle 1 Day 1, single oral dose, 225 mg BID monotherapy, geometric mean (CV %), read-out: Cmax) was 1390 ng/mL and the Tmax (human, plasma, po, 225 mg, Cycle 1 Day 1, single oral dose, 225 mg BID monotherapy, median (range), read-out: Tmax) was 3.9 h.

Reference: patent US20250127759A1, “METHODS AND DOSING REGIMENS COMPRISING A CDK2 INHIBITOR FOR THE TREATMENT OF CANCER” (PFIZER INC., priority 2021, published 2025)
